Laboratory results as given in patent publication US20150366199A1, “COMPOSITIONS COMPRISING GOUGEROTIN AND AN INSECTICIDE” (priority 2013, published 2015).
Read-outs that look alike come from different tables or passages of the source.

Key:
[1] = tested on: mustard beetle larvae (Phaedon cochleariae); assay: Phaedon cochleariae - spray test; conditions: for Efficacy in % after 2d: mortality after 2 d; for Efficacy in % after 6d: mortality after 6 d
Protocol: The expected efficacy of a given combination of two compounds is calculated as follows (see Colby, S. R., “Calculating Synergistic and antagonistic Responses of Herbicide Combinations”, Weeds 15, pp. 20-22, 1967):
Solvent: 78.0 parts by weight of acetone • • 1.5 parts by weight of dimethylformamide
To produce a suitable preparation of a NRRL B-50550, 1 part by weight of NRRL B-50550 75 WP was mixed with the stated amount of solvents and was diluted with water, containing an emulsifier concentration of 1000 ppm, to the desired concentration. Further test concentrations are prepared by dilution with emulsifier containing water.
Chinese cabbage (Brassica pekinensis) leaf-disks are sprayed with a preparation of the active ingredient of the desired concentration. Once dry, the leaf disks are infested with mustard beetle larvae (Phaedon cochleariae).
After the specified period of time, mortality in % is determined 100% means all beetle larvae have been killed and 0% means none of the beetle larvae have been killed. The mortality values determined thus are recalculated using the Colby-formula.

[2] = tested on: fall armyworm larvae (Spodoptera frugiperda); assay: Spodoptera frugiperda - spray test; conditions: for Efficacy in % after 6d: mortality after 6 d; for Efficacy in % after 2d: mortality after 2 d
Protocol: Solvent: 78.0 parts by weight acetone • 1.5 parts by weight dimethylformamide
To produce a suitable preparation of NRRL B-50550, 1 part by weight of NRRL B-50550 75 WP is mixed with the stated amount of solvents and is diluted with water, containing an emulsifier concentration of 1000 ppm, to the desired concentration. Further test concentrations are prepared by dilution with emulsifier containing water.
Maize (Zea mais) leaf sections are sprayed with a preparation of the active ingredient of the desired concentration. Once dry, the leaf sections are infested with fall armyworm larvae (Spodoptera frugiperda).
After the specified period of time, mortality in % is determined 100% means all caterpillars have been killed and 0% means none of the caterpillars have been killed. The mortality values determined thus are recalculated using the Colby-formula.

[3] = tested on: two spotted spidermite (Tetranychus urticae); assay: Tetranychus urticae - spray test, OP-resistant; type: in vivo; conditions: mortality after 6 d
Text: (§1) Emulsifier: alkylaryl polyglycol ether

[4] = tested on: green peach aphid (Myzus persicae); assay: Myzus persicae - spray test (Chinese cabbage leaf-disks, Example 6); type: in vivo; conditions: for Efficacy in % after 1d: mortality after 1 d; for Efficacy in % after 6d: mortality after 6 d
Text: as §1

pin worm = conditions: parasites on animals, such as pin worm, cited from earlier work
[5] = cited from earlier work
[6] = tested on: gram-positive, gram-negative bacteria and tubercule bacillus; conditions: cited from earlier work
mites = conditions: cited from earlier work
[7] = tested on: green peach aphid (Myzus persicae); assay: Myzus persicae - spray test (pepper leaves, Example 8); type: in vivo; conditions: 0.5 ppm

Cc1c(F)c(F)c(COC(=O)[C@@H]2[C@H](/C=C(\Cl)C(F)(F)F)C2(C)C)c(F)c1F (racemic) [Tefluthrin]
Efficacy in % after 2d ([1]; 40 ppm): 0%

CNC(=O)c1cc(C#N)cc(C)c1NC(=O)c1cc(Cn2nnc(C(F)(F)F)n2)nn1-c1ncccc1Cl [1-(3-chloropyridin-2-yl)-N-[4-cyano-2-methyl-6-(methylcarbamoyl)phenyl]-3-{[5-(trifluoromethyl)-2H-tetrazol-2-yl]methyl}-1H-pyrazole-5-carboxamide]
Efficacy in % after 6d ([1]; 0.128 ppm): 0% | Efficacy in % after 2d ([1]; 0.64 ppm): 50% | Efficacy in % after 6d ([2]; 0.64 ppm): 33%

Cc1cc(F)c(-n2nc(C(F)(F)F)nc2N)cc1[S+]([O-])CC(F)(F)F (stereo not drawn) [1-{2-fluoro-4-methyl-5-[(2,2,2-trifluorethyl)sulfinyl]phenyl}-3-(trifluoromethyl)-1H-1,2,4-triazol-5-amine]
Efficacy in % after 6d ([3]; 3.2 ppm): 0%

CNC(=O)c1cc(Cl)cc(C)c1NC(=O)c1cc(Br)nn1-c1ncccc1Cl [Chlorantraniliprole]
Efficacy in % after 1d ([4]; 3.2 ppm): 0% | Efficacy in % after 6d ([3]; 16 ppm): 0%

CN/C(=N\[N+](=O)[O-])NCc1cnc(Cl)s1 [Clothianidin]
Efficacy in % after 6d ([4]; 0.32 ppm): 0%

CNC(=O)c1cc(C#N)cc(C)c1NC(=O)c1cc(Br)nn1-c1ncccc1Cl [Cyantraniliprole]
Efficacy in % after 6d ([1]; 0.64 ppm): 0% | Efficacy in % after 6d ([4]; 0.64 ppm): 0% | Efficacy in % after 6d ([4]; 3.2 ppm): 0% | Efficacy in % after 1d ([4]; 16 ppm): 0% | Efficacy in % after 6d ([3]; 80 ppm): 0%

N#Cc1nn(-c2c(Cl)cc(C(F)(F)F)cc2Cl)c(N)c1[S+]([O-])C(F)(F)F (stereo not drawn) [Fipronil]
Efficacy in % after 6d ([2]; 16 ppm): 0%

Cc1cc(C(F)(C(F)(F)F)C(F)(F)F)ccc1NC(=O)c1cccc(I)c1C(=O)NC(C)(C)CS(C)(=O)=O [Flubendiamide]
Efficacy in % after 2d ([2]; 3.2 ppm): 33%

CNCC(=O)NC(CO)C(=O)NC1C(C(N)=O)OC(n2ccc(N)nc2=O)C(O)C1O [Gougerotin, 1-(4-Amino-2-oxo-1(2H)-pyrimidinyl)-1,4-dideoxy-4-[[N—(N-methylglycyl)-D-seryl]amino]-b-D-glucopyranuronamide]
parasiticidal activity (pin worm): inhibitory effect on the ovulation of pin worms | parasiticidal activity (pin worm; listed as gougerotin): parasiticidal action | water solubility [5]: water soluble | antibacterial activity [6]: weak | acaricidal (miticidal) effect (mites): acaricidal (miticidal) effect

O=[N+]([O-])NC1=NCCN1Cc1ccc(Cl)nc1 [Imidacloprid]
Efficacy in % after 6d ([3]; 2 ppm): 0%

CNC(=O)Oc1cc(C)c(SC)c(C)c1 [Methiocarb]
Efficacy in % after 6d ([4]; 2000 ppm): 0%

CC(c1ccc(C(F)(F)F)nc1)S(C)(=O)=NC#N (stereo not drawn) [Sulfoxaflor]
Efficacy in % after 1d ([4]; 0.64 ppm): 0%

N#C/N=C1\SCCN1Cc1ccc(Cl)nc1 [Thiacloprid]
Efficacy in % after 2d ([7]; mortality after 2 d): 40% | Efficacy in % after 3d ([7]; mortality after 3 d): 20% | Efficacy in % after 7d ([7]; mortality after 7 d): 10%

CS/C(C)=N\OC(=O)N(C)SN(C)C(=O)O/N=C(\C)SC [Thiodicarb]
Efficacy in % after 2d ([2]; 40 ppm): 0%

CC1(C)C(C=C(Cl)Cl)C1C(=O)OC(C#N)c1ccc(F)c(Oc2ccccc2)c1 (stereo not drawn) [β-Cyfluthrin, beta-Cyfluthrin]
Efficacy in % after 6d ([1]; 1.6 ppm): 0% | Efficacy in % after 6d ([2]; 1.6 ppm): 0% | Efficacy in % after 6d ([4]; 1.6 ppm): 0%

Spinetoram
Efficacy in % after 2d ([2]; 0.64 ppm): 0%

Spinosad
Efficacy in % after 2d ([1]; 80 ppm): 50% | Efficacy in % after 6d ([2]; 0.64 ppm): 0%
